{
  "source": "patent US9302999B2",
  "about": "“Substituted triazoles as herbicides” (E. I. DU PONT DE NEMOURS AND COMPANY, priority 2012, dated 2016)",
  "format_in_all_cases": "in vivo",
  "key": {"[1]": {"system": "foxtail, giant (giant foxtail, Setaria faberii)", "assay": "Test A pre-/postemergence: foxtail, giant", "settings": "Setaria faberi, 240 h; for pest or weed control at 125 g/ha: 125 g ai/ha; for pest or weed control at 500 g/ha: 500 g ai/ha", "how_it_was_run": "(§1)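 Injury is scored visually on a scale where 0 means no effect and 100 complete control, comparing treated with untreated plants after approximately ten greenhouse days. Both preemergence and postemergence applications are made at the same time.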"}, "[2]": {"system": "morningglory (Ipomoea spp.)", "assay": "Test A pre-/postemergence: morningglory", "settings": "Ipomoea, 240 h; for pest or weed control at 125 g/ha: 125 g ai/ha; for pest or weed control at 500 g/ha: 500 g ai/ha", "how_it_was_run": "as §1"}, "corn (Zea mays)": {"system": "corn (Zea mays)", "assay": "Test A pre-/postemergence: corn", "settings": "Zea mays, 240 h", "how_it_was_run": "as §1"}, "[3]": {"system": "ryegrass, Italian (Italian ryegrass, Lolium multiflorum)", "assay": "Test C pre-/postemergence: ryegrass, Italian", "how_it_was_run": "(§2)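 Visual injury scored 0–100 (100 = complete control) against untreated controls after 13–15 greenhouse days. Surfactant-containing solvent formulations applied either to soil after sowing (loam/sand) or over 1- to 4-leaf plants, 2–18 cm tall.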"}, "[4]": {"system": "johnsongrass (Sorghum halepense)", "assay": "Test C pre-/postemergence: johnsongrass", "how_it_was_run": "as §2"}, "kochia (Kochia scoparia)": {"system": "kochia (Kochia scoparia)", "assay": "Test C pre-/postemergence: kochia", "how_it_was_run": "as §2"}, "[5]": {"system": "ragweed (common ragweed, Ambrosia elation)", "assay": "Test C pre-/postemergence: ragweed", "settings": "Postemergence", "source_text": "(§3) Seeds of plant species selected from blackgrass (Alopecurus myosuroides), bromegrass, downy (downy bromegrass, Bromus tectorum), foxtail, green (green foxtail, Setaria viridis), ryegrass, Italian (Italian ryegrass, Lolium multiflorum), winter wheat (Triticum aestivum), wild oat (Avena fatua), galium (catchweed bedstraw, Galium aparine), bermudagrass (Cynodon dactylon), surinam grass (Brachiaria decumbens), cocklebur (common cocklebur, Xanthium strumarium), corn (Zea mays), large crabgrass (Digitaria sanguinalis), woolly cupgrass (Eriochloa villosa), foxtail, giant (giant foxtail, Setaria faberii), goosegrass (Eleusine indica), johnsongrass (Sorghum halepense), kochia (Kochia scoparia), lambsquarters (Chenopodium album), morningglory (Ipomoea coccinea), nightshade (eastern black nightshade, Solanum ptycanthum), nutsedge, yellow (yellow nutsedge, Cyperus esculentus), pigweed (Amaranthus retroflexus), ragweed (common ragweed, Ambrosia elation), soybean (Glycine max), common (oilseed) sunflower (Helianthus annuus), Russian thistle (Salsola kali) and velvetleaf (Abutilon theophrasti) were planted into a blend of loam soil and sand and treated preemergence with test chemicals formulated in a non-phytotoxic solvent mixture which included a surfactant.\n(§4) At the same time, plants selected from these crop and weed species and also barley (winter barley, Hordeum vulgare), canarygrass (Phalaris minor), chickweed (common chickweed, Stellaria media) windgrass (Apera spica-venti) and deadnettle (henbit deadnettle, Lamium amplexicaule) were planted in pots containing Redi-Earth® planting medium (Scotts Company, 14111 Scottslawn Road, Marysville, Ohio 43041) comprising spaghnum peat moss, vermiculite, wetting agent and starter nutrients and treated with postemergence applications of test chemicals formulated in the same manner. Plants ranged in height from 2 to 18 cm (1- to 4-leaf stage) for postemergence treatments.\n(§5) Treated plants and controls were maintained in a greenhouse for 13 to 15 days, after which time all species were compared to controls and visually evaluated. Plant response ratings, summarized in Table C, are based on a scale of 0 to 100 where 0 is no effect and 100 is complete control. A dash (-) response means no test result."}, "soybean (Glycine max)": {"system": "soybean (Glycine max)", "assay": "Test C pre-/postemergence: soybean", "source_text": "as §3, §4, §5"}, "[6]": {"system": "chickweed (common chickweed, Stellaria media)", "assay": "Test C postemergence: chickweed", "source_text": "as §4, §5"}, "[7]": {"settings": "Postemergence, 31 g ai/ha, scale 0 to 100 (0 no effect, 100 complete control)"}, "[8]": {"settings": "Postemergence, 62 g ai/ha, scale 0 to 100 (0 no effect, 100 complete control)"}, "[9]": {"settings": "Postemergence, 125 g ai/ha, scale 0 to 100, 0 no effect, 100 complete control"}, "[10]": {"settings": "Postemergence, 250 g ai/ha, scale 0 to 100"}, "[11]": {"settings": "Preemergence, 31 g ai/ha, scale of 0 to 100, 0 is no effect, 100 is complete control"}, "[12]": {"settings": "Preemergence, 62 g ai/ha, scale of 0 to 100, 0 is no effect, 100 is complete control"}, "[13]": {"settings": "Preemergence, 125 g ai/ha, scale 0 to 100, 0 no effect, 100 complete control"}, "[14]": {"settings": "Preemergence, 250 g ai/ha, scale 0 to 100, 0 no effect, 100 complete control"}, "[15]": {"settings": "31 g ai/ha, scale 0 to 100 (0 no effect, 100 complete control)"}, "[16]": {"settings": "62 g ai/ha, scale 0 to 100 (0 no effect, 100 complete control)"}, "[17]": {"settings": "125 g ai/ha, scale 0 to 100, 0 no effect, 100 complete control"}},
  "note": "Where two headings read alike, the source gives them in different places.",
  "data": [
    {"smiles": "FC(F)(F)COc1nn(-c2ccc(C(F)(F)F)cc2)nc1Cc1ccnc(C(F)(F)F)c1", "note": "[Compound 14, 4-[[5-(2,2,2-trifluoroethoxy)-2-[4-(trifluoromethyl)phenyl]-2H-1,2,3-triazol-4-yl]methyl]-2-(trifluoromethyl)pyridine]", "values": [
      {"measurement": "pest or weed control at 125 g/ha", "setting": "[1]; post-emergence, Postemergence, 0 to 100 scale, 0 is no effect, 100 is complete control, read-out: Foxtail, Giant plant response rating", "value": 80, "unit": "%"},
      {"measurement": "pest or weed control at 500 g/ha", "setting": "[1]; post-emergence, Postemergence, visual rating on 0 to 100 scale (0 no effect, 100 complete control), approximately ten days, read-out: Foxtail, Giant plant response rating", "value": 90, "unit": "%"},
      {"measurement": "pest or weed control at 125 g/ha", "setting": "[1]; pre-emergence, Preemergence, 0 to 100 scale (0 no effect, 100 complete control), read-out: Plant response rating, Foxtail, Giant", "value": 100, "unit": "%"},
      {"measurement": "pest or weed control at 500 g/ha", "setting": "[1]; pre-emergence, Preemergence, 0 to 100 scale, 0 is no effect, 100 is complete control, read-out: Plant response rating, Foxtail, Giant", "value": 100, "unit": "%"},
      {"measurement": "pest or weed control at 125 g/ha", "setting": "[2]; post-emergence, Postemergence, 0 to 100 scale, 0 is no effect, 100 is complete control, read-out: Morningglory plant response rating", "value": 80, "unit": "%"},
      {"measurement": "pest or weed control at 500 g/ha", "setting": "[2]; post-emergence, Postemergence, visual rating on 0 to 100 scale (0 no effect, 100 complete control), approximately ten days, read-out: Morningglory plant response rating", "value": 100, "unit": "%"},
      {"measurement": "pest or weed control at 125 g/ha", "setting": "[2]; pre-emergence, Preemergence, 0 to 100 scale (0 no effect, 100 complete control), read-out: Plant response rating, Morningglory", "value": 60, "unit": "%"},
      {"measurement": "pest or weed control at 500 g/ha", "setting": "[2]; pre-emergence, Preemergence, 0 to 100 scale, 0 is no effect, 100 is complete control, read-out: Plant response rating, Morningglory", "value": 80, "unit": "%"},
      {"measurement": "plant injury at 125 g/ha", "setting": "corn (Zea mays); post-emergence, Postemergence, 125 g ai/ha, 0 to 100 scale, 0 is no effect, 100 is complete control, read-out: Corn plant response rating", "value": 20, "unit": "%"},
      {"measurement": "plant injury at 500 g/ha", "setting": "corn (Zea mays); post-emergence, Postemergence, 500 g ai/ha, visual rating on 0 to 100 scale (0 no effect, 100 complete control), approximately ten days, read-out: Corn plant response rating", "value": 40, "unit": "%"},
      {"measurement": "Corn plant response rating (crop injury, 0 = no effect, 100 = complete kill) at 125 g/ha", "setting": "corn (Zea mays); pre-emergence, Preemergence, 125 g ai/ha, 0 to 100 scale (0 no effect, 100 complete control)", "value": 20, "unit": "%"},
      {"measurement": "Corn plant response rating (crop injury, 0 = no effect, 100 = complete kill) at 500 g/ha", "setting": "corn (Zea mays); pre-emergence, Preemergence, 500 g ai/ha, 0 to 100 scale, 0 is no effect, 100 is complete control", "value": 30, "unit": "%"},
      {"measurement": "Plant response rating, Ryegrass, Italian", "setting": "[3]; [7]", "value": 30},
      {"measurement": "Plant response rating, Ryegrass, Italian", "setting": "[3]; [8]", "value": 35},
      {"measurement": "Plant response rating, Ryegrass, Italian", "setting": "[3]; [9]", "value": 35},
      {"measurement": "Plant response rating, Ryegrass, Italian", "setting": "[3]; [10]", "value": 40},
      {"measurement": "Plant response rating, Ryegrass, Italian", "setting": "[3]; [11]", "value": 10},
      {"measurement": "Plant response rating, Ryegrass, Italian", "setting": "[3]; [12]", "value": 35},
      {"measurement": "Plant response rating, Ryegrass, Italian", "setting": "[3]; [13]", "value": 60},
      {"measurement": "Plant response rating, Ryegrass, Italian", "setting": "[3]; [14]", "value": 85},
      {"measurement": "Plant response rating, Johnsongrass", "setting": "[4]; [7]", "value": 20},
      {"measurement": "Plant response rating, Johnsongrass", "setting": "[4]; [8]", "value": 20},
      {"measurement": "Plant response rating, Johnsongrass", "setting": "[4]; [9]", "value": 55},
      {"measurement": "Plant response rating, Johnsongrass", "setting": "[4]; [10]", "value": 75},
      {"measurement": "Plant response rating, Johnsongrass", "setting": "[4]; [11]", "value": 20},
      {"measurement": "Plant response rating, Johnsongrass", "setting": "[4]; [12]", "value": 45},
      {"measurement": "Plant response rating, Johnsongrass", "setting": "[4]; [13]", "value": 80},
      {"measurement": "Plant response rating, Johnsongrass", "setting": "[4]; [14]", "value": 85},
      {"measurement": "Plant response rating, Kochia", "setting": "kochia (Kochia scoparia); [7]", "value": 90},
      {"measurement": "Plant response rating, Kochia", "setting": "kochia (Kochia scoparia); [8]", "value": 95},
      {"measurement": "Plant response rating, Kochia", "setting": "kochia (Kochia scoparia); [9]", "value": 95},
      {"measurement": "Plant response rating, Kochia", "setting": "kochia (Kochia scoparia); [10]", "value": 95},
      {"measurement": "Plant response rating, Kochia", "setting": "kochia (Kochia scoparia); [11]", "value": 0},
      {"measurement": "Plant response rating, Kochia", "setting": "kochia (Kochia scoparia); [12]", "value": 0},
      {"measurement": "Plant response rating, Kochia", "setting": "kochia (Kochia scoparia); [13]", "value": 75},
      {"measurement": "Plant response rating, Kochia", "setting": "kochia (Kochia scoparia); [14]", "value": 85},
      {"measurement": "Plant response rating, Ragweed", "setting": "[5]; [15]", "value": 55},
      {"measurement": "Plant response rating, Ragweed", "setting": "[5]; [16]", "value": 55},
      {"measurement": "Plant response rating, Ragweed", "setting": "[5]; [17]", "value": 60},
      {"measurement": "Plant response rating, Ragweed", "setting": "[5]; 250 g ai/ha, scale 0 to 100", "value": 80},
      {"measurement": "Plant response rating, Soybean", "setting": "soybean (Glycine max); [7]", "value": 25},
      {"measurement": "Plant response rating, Soybean", "setting": "soybean (Glycine max); [8]", "value": 25},
      {"measurement": "Plant response rating, Soybean", "setting": "soybean (Glycine max); [9]", "value": 30},
      {"measurement": "Plant response rating, Soybean", "setting": "soybean (Glycine max); [10]", "value": 35},
      {"measurement": "Plant response rating, Soybean", "setting": "soybean (Glycine max); [11]", "value": 0},
      {"measurement": "Plant response rating, Soybean", "setting": "soybean (Glycine max); [12]", "value": 0},
      {"measurement": "Plant response rating, Soybean", "setting": "soybean (Glycine max); [13]", "value": 0},
      {"measurement": "Plant response rating, Soybean", "setting": "soybean (Glycine max); [14]", "value": 0},
      {"measurement": "Plant response rating, Chickweed", "setting": "[6]; [15]", "value": 60},
      {"measurement": "Plant response rating, Chickweed", "setting": "[6]; [16]", "value": 75},
      {"measurement": "Plant response rating, Chickweed", "setting": "[6]; [17]", "value": 75},
      {"measurement": "Plant response rating, Chickweed", "setting": "[6]; 250 g ai/ha, scale 0 to 100", "value": 80}
    ]}
  ]
}
